Reference: patent US20150290029A1, “Delivery Systems for Agents to treat Ocular Discomfort” (priority 2014, published 2015)
Where two headings read alike, the source gives them in different places. Each block holds one compound with its values, some of them ahead of it.

Experiments:
[1] = target: T1, TRPM8 receptor (Homo sapiens, UniProt Q7Z2W7); experiment: Receptor assay, fluorescence (Relative Fluorescence Units), ChanTest; type: cell-based; conditions: FIG. 4
T1 construct: ChanTest Corporation
T1 sequence (Q7Z2W7 whole entry): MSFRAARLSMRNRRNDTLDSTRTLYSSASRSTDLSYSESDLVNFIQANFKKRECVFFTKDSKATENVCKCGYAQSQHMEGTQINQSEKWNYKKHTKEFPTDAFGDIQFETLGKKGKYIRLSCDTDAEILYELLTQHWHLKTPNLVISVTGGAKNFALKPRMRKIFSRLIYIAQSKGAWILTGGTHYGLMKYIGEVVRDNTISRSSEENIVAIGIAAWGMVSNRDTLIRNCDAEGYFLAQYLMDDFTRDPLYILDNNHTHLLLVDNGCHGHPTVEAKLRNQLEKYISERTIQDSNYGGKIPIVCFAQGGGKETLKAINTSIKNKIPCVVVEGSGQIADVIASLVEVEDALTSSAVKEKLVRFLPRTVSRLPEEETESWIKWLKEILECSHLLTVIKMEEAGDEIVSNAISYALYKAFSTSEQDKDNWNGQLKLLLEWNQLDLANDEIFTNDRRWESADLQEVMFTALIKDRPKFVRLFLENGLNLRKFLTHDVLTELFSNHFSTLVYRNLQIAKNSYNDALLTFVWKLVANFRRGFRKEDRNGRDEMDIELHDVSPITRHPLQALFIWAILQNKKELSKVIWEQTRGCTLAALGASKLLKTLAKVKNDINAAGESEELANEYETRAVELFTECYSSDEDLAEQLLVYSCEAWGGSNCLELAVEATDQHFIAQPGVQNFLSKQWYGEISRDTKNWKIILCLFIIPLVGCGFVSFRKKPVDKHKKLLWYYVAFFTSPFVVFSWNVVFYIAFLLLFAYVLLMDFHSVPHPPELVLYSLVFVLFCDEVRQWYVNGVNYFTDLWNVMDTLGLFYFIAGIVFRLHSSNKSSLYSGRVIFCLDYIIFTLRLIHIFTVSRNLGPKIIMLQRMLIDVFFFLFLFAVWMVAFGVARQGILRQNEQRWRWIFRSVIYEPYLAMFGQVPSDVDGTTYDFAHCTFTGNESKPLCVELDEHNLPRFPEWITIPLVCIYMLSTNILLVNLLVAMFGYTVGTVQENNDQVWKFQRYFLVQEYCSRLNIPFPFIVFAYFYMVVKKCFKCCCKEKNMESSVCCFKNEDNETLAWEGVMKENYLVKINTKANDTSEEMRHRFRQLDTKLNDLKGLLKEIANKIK
Experimental: FIG. 4 is a graph of fluorescence (Relative Fluourescence Units; % Maximum) of test compounds, as a function of the logarithm of the concentration of the test compound (μM). The compounds tested were 2-4 (circle), 2-5 (square), 2-6 (inverted triangle), 2-7 (diamond), and 2-8 (star), representing the 1 [di-sec-butyl-phosphinoyl]-butane, pentane, hexane, heptane, and octane analogs, respectively. The receptor assays were conducted by ChanTest Corporation, Cleveland, Ohio 44128. […] The 95% confidence intervals of 2-5 to 2-8 overlap.
(§1) FIG. 5. illustrates the activity of 2-5 on cells transfected with the TRPA1 and TRPV1. TRPA1 and TRPV1 receptors mediate nociception: that is, stimulation of these receptors results in irritation and pain. Capsaicin and mustard oil are the positive control substances for TRPV1 and TRPA1, respectively.

[2] = test system: human ocular surface; conditions: for Irritancy, delivery unit: wiped across the orbital skin
Experimental: Subjects received different ethanol-water concentrations either in eye drops or via the delivery unit. Subjects were asked to report irritation, stinging, burning sensations, or pain in the 2 to 5 min after application. The intensity of the subjective eye sensation was rated as 0, 1, 2 or 3 with: 0 as no effect; 1 as slight; 2 as a clear-cut effect; and 3 as severe.

[3] = target: T2, TRPA1 (Homo sapiens, UniProt O75762); experiment: Activity on TRPA1 transfected cells; type: cell-based; conditions: FIG. 5; mustard oil positive control
T2 construct: expressed in transfected cells
T2 sequence (O75762 whole entry, species assumed): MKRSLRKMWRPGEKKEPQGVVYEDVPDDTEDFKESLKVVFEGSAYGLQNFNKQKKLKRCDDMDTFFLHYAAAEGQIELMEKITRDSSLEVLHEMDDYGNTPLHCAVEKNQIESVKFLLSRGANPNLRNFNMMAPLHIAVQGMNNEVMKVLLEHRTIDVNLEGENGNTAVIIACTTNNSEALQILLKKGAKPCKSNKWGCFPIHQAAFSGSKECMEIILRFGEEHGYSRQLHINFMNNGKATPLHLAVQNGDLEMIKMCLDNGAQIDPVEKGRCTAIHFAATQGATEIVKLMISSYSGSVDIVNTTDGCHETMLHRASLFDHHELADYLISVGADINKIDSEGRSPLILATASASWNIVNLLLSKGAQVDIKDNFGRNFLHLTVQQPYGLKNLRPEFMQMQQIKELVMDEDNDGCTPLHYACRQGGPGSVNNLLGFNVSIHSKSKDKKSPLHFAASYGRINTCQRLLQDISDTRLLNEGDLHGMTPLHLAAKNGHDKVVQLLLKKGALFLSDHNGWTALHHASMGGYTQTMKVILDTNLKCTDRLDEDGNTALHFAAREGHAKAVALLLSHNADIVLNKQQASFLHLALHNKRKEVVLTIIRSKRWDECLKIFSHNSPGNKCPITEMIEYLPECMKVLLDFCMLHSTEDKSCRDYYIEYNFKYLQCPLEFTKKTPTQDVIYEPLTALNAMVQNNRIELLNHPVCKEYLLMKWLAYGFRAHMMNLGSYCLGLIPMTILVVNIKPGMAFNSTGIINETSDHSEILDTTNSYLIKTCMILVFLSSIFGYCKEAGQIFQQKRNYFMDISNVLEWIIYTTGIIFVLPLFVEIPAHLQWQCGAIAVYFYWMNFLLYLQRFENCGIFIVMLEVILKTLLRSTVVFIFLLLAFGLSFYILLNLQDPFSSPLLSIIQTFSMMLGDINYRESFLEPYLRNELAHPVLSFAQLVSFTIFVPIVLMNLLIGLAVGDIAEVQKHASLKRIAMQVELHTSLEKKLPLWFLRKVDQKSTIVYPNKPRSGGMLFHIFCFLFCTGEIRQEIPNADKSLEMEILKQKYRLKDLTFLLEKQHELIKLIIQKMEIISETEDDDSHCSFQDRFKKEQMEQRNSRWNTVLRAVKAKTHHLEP
Source text: as §1

[4] = target: T3, TRPV1 (Homo sapiens, UniProt Q8NER1); experiment: Activity on TRPV1 transfected cells; type: cell-based; conditions: FIG. 5; capsaicin positive control
T3 construct: expressed in transfected cells
T3 sequence (Q8NER1 whole entry, species assumed): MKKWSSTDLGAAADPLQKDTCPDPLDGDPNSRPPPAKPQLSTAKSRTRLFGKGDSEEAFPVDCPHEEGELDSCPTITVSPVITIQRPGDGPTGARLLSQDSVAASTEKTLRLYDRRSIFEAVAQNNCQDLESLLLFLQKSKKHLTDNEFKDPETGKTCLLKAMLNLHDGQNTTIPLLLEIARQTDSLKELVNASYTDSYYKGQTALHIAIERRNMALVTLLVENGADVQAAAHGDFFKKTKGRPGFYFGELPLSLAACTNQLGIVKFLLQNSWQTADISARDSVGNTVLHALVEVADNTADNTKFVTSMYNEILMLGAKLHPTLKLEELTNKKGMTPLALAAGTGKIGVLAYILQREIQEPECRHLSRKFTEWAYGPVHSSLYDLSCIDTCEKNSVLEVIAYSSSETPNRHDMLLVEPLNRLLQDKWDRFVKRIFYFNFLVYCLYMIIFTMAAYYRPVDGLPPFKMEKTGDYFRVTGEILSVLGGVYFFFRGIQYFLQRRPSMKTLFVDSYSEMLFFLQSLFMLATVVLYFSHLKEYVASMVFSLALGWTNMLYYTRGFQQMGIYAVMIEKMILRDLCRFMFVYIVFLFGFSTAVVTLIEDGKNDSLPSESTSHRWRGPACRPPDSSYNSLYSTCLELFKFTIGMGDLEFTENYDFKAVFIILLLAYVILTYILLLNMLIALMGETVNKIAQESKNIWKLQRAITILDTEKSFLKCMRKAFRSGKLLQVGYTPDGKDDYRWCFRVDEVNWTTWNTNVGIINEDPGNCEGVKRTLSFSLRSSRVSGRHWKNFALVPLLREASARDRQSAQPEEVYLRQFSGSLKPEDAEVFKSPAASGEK
Source text: as §1

[5] = test system: skin of the eyelids; experiment: Irritation when applied in vivo to the skin of the eyelids; conditions: compared among analogs 2-4 to 2-8
[6] = test system: ocular surface; experiment: Periocular spray of 2-5 over the closed eye in normal subjects and dry eyes syndrome patients; type: in vivo, human
Experimental: Sensory discomfort of the eye is a conspicuous symptom in patients diagnosed with “dry eyes disease.” The study described below was conducted by Prof. K. C. Yoon of the Department of Ophthalmology, Chonnam National University Medical School, Gwangju, South Korea. Prof. Yoon is an acknowledged expert on the investigation of dry eyes disease and has published extensively on this subject [e.g. Yoon, K.-C. et al. Application of umbilical cord serum eyedrops for the treatment of dry eye syndrome. Cornea 25, 268-72 (2006). Yoon, K.-C. et al. Comparison of autologous serum and umbilical cord serum eye drops for dry eye syndrome. Am. J. Ophthalmol. 144, 86-92 (2007).] The methods used in these two publications were also used in the experiments described below. This report was presented as an Oral Communication entitled “Effect of a periocular spray of a TRPM8 agonist on the ocular surface” at the 110th Meeting of the Korean Ophthalmological Society, Bexco, Busan, Korea on Apr. 13, 2014.
2-5 was prepared as a 2 mg/mL solution in distilled water and administered as a spray [sprayed volume of ˜0.1 mL] over the closed right eye of test subjects. There were 20 subjects in the normal group [9 males/11 females] and 17 subjects in the group with defined “dry eyes syndrome” [7 males/10 females]. Exclusion criteria for patient selection was age of <18 years, systemic medication that may affect tear secretion, previous punctal plug insertion, history of contact lenses use, previous ocular surgery or trauma, pregnancy or lactation, and ocular or systemic disease. The average age of the subjects was 29 years, and both groups had normal values for visual acuity, intraocular pressure, and corneal sensitivity [Cochet-Bonnet esthesiometry, measured with a microfilament]. […] The score for keratoepitheliopathy [National Eye Institute system] was 0.1±0.3 and 2.5±1.7, in the normal vs the “dry eyes syndrome” group.
Subjective symptoms were graded on a numerical score. A visual analog scale score [0 to 10 units] was used for grading the degree of soothing and cooling sensation on the ocular surface. For symptoms of the dry eyes syndrome, a scale of zero to four was used, with zero representing no symptoms and four representing very severe symptoms that caused discomfort and interfered with normal activities. These methods have been described in detail elsewhere and are incorporated by reference [Yoon, K.-C. et al. Application of umbilical cord serum eyedrops for the treatment of dry eye syndrome. Cornea 25, 268-72 (2006). Yoon, K.-C. et al. Comparison of autologous serum and umbilical cord serum eye drops for dry eye syndrome. Am. J. Ophthalmol. 144, 86-92 (2007)].
The onset was less than 3 min and reached maximal effect in the first 10 min. The mean duration of cooling was 42±8 min and all cooling sensations disappeared by 1 hr. For patients previously diagnosed with “dry eyes” disease there was a reduction of symptom score from 1.8 to 0.5, a highly significant event [P<0.001]. […] However, the magnitude of the effect was not considered clinically significant and may have been due to increased sensitivity of the dry eyes patients to foreign solutions applied to the ocular surface. The keratoepitheliopathy score was not affected by treatment.
The mechanical sensitivity of the cornea, measured with the Cochet-Bonnet esthesiometer, was not affected in all patients, in the 1.5 hr test period with […], spaced 30 min apart. This is an important observation from the viewpoint of safety in use, because numbness of the corneal surface will increase risks of eye injury from foreign materials.

[7] = ethanol 5% wt/vol in water, scale 0-3
[8] = ethanol 10% wt/vol in water, scale 0-3
[9] = dry eyes group, first 30 min, not considered clinically significant

Compound: CCCCCCCCP(=O)(C(C)CC)C(C)CC (centres unmarked) [2-8, 1 [di-sec-butyl-phosphinoyl]-octane]
Potency relative to 1-menthol in the same assay [1]: 3.0 ×

Compound: CCCCCCP(=O)(C(C)CC)C(C)CC (centres unmarked) [2-6, 1 [di-sec-butyl-phosphinoyl]-hexane]
Potency relative to 1-menthol in the same assay [1]: 4-9 ×

The next lines start with results.

Potency relative to 1-menthol in the same assay [1]: 0.3 ×
Compound: CCCCP(=O)(C(C)CC)C(C)CC (centres unmarked) [2-4, 1 [di-sec-butyl-phosphinoyl]-butane]

Sensation upon delivery ([2]; 20% applied to the eye with a wipe): mild burning sensations in two subjects
Compound: CCO [Ethanol]
Sensation upon delivery ([2]; 5% ethanol solution as an eye drop): clearly aversive as an eye drop, producing stinging and pain upon delivery
Irritancy, eye drops ([2]; ethanol 2.5% wt/vol in water, scale 0-3 (0 no effect, 3 strongly irritating), N = 8 experiments): 0
Irritancy, delivery unit ([2]; ethanol 2.5% wt/vol in water, scale 0-3): 0
Irritancy, eye drops [2, 7]: +2
Irritancy, delivery unit [2, 7]: 0
Irritancy, eye drops [2, 8]: +3
Irritancy, delivery unit [2, 8]: 0
Irritancy, delivery unit ([2]; ethanol 20% wt/vol in water, scale 0-3): +1
Change in decreased sensitivity to irritation, swab method versus eye drops ([2]; ethanol/water): ~4 fold

Potency relative to 1-menthol in the same assay [1]: 2.2 ×
Stimulation of TRPA1 [3]: does not stimulate
Stimulation of TRPV1 [4]: does not stimulate
Keratoepitheliopathy score ([6]; after treatment): not affected
Mechanical sensitivity of the cornea (Cochet-Bonnet esthesiometer) ([6]; all patients, 1.5 hr test period, 5 points of measurement): not affected
Compound: CCCCCP(=O)(C(C)CC)C(C)CC (centres unmarked) [2-5, 1-di(sec-butyl) phosphinoyl-pentane]
Irritation when applied to the skin of the eyelids [5]: minimal irritation
Soothing and cooling sensations on the ocular surface after blinking ([6]; 2 mg/mL in distilled water, spray ~0.1 mL over closed eye): all subjects felt soothing and cooling sensations
Mean duration of cooling ([6]; 2 mg/mL spray over closed eye): 42 ± 8 min
Onset of cooling ([6]; 2 mg/mL spray over closed eye): less than 3 min
Time by which all cooling sensations disappeared ([6]; 2 mg/mL spray over closed eye): ≤ 1 h
Time of maximal effect ([6]; 2 mg/mL spray over closed eye): ≤ 10 min
Tear Film BUT [6, 9]: slightly elevated
Tear secretion rates [6, 9]: slightly elevated
Symptom score after treatment ([6]; dry eyes patients, scale zero to four, reduced from 1.8, P<0.001): 0.5
Tear Film BUT ([6]; normal group): not significantly affected
Tear secretion rates ([6]; normal group): not significantly affected
